Laboratory results from patent publication US11220482B2, “Aminopyridinemethanol compounds and their use” (UNIVERSITE AMIENS PICARDIE JULES VERNE, priority 2017, dated 2022).

Columns and labels:
P. falciparum 3D7 = test: P. falciparum growth inhibition assay, second round (SYBR Green I, ICEstimator); assay type: cell-based, Plasmodium falciparum; conditions: Plasmodium falciparum, 3D7, 48 h
[1] = in vivo, cited from earlier work
CHO-K1 cells = test: In vitro micronucleus assay, short-term exposure; conditions: short-term, with S9 mix, positive control 5 μg/mL
Procedure: All the assays were conducted in duplicate. The CHO-K1 cells, suspended in McCoy's 5A medium, were transferred into Labteck wells at a concentration of 100,000 cells/mL, and incubated for 24 hours at 37° C. in CO2 (5%).
When the test was performed without metabolic activation, the test substances were added into cell cultures at concentrations previously defined.
When the assay was performed in the presence of metabolic activation, S9 mix metabolizing mixture was added to cell cultures at a concentration of 10%. Then the test substances were added to the cell cultures at concentrations previously defined.
After 3 hours of incubation at 37° C. in CO2 (5%), the culture medium was removed, the cells were rinsed with phosphate buffered saline (PBS), and then returned to culture in McCoy's 5A medium containing […] of cytochalasin B. After a 21-hour incubation period at 37° C., cells were rinsed with phosphate buffered saline (PBS), fixed with methanol and stained with 10% Giemsa for 20 minutes.
The analysis of results was performed under a microscope at ×1000 magnification. The antiproliferative activity of test substances was estimated by counting the number of binucleated cells relative to the number of mononucleated cells on a total of 500 cells for each dose (250 cells counted per well). The proliferation index (Cytokinesis Blocked Proliferative Index CBPI) was calculated using the following formula:
The cytostasis index (CI %), i.e. the percentage of cell replication inhibition, was calculated using the following formula: CI %−100−{100×(CBPItest material−1)/(CBPIsolvent control−1)}
The rates of micronuclei were evaluated for the presence of independent nuclear core entities in 1000 binucleated cells per well, which corresponds to 2000 cells examined by test substance dose. Micronuclei were identified as small nuclei well differentiated from cell nucleus, stained in the same manner and having a diameter less than one third of that of the cell nucleus.
Micronuclei rates obtained for different doses of test substances were compared to the negative control by a χ2 test. The assay was considered positive if: • A dose-response relationship was obtained between the rate of micronuclei and the doses tested, • At least one of these doses induced a statistically significant increase (P<0.05) in the number of micronucleated cells as compared to the negative control.

OC(c1cc(-c2ccc(C(F)(F)F)cc2)nc(C(F)(F)F)c1)C1CCCCN1 (racemic) [Enpiroline, reference compound]
IC50 (P. falciparum 3D7): 21.6 ± 1.43 nM | mean half-life [1]: 140 h

OC(c1cc(C(F)(F)F)nc2c(C(F)(F)F)cccc12)C1CCCCN1 (racemic) [Mefloquine, mefloquine]
human t1/2 [1]: 2-4 weeks

C[C@@H]1CC[C@H]2[C@@H](C)C(=O)O[C@@H]3O[C@@]4(C)CC[C@@H]1[C@]32OO4 [Artemisinin]
human t1/2 [1]: 1 h

c1ccc2c(c1)cc1ccc3cccc4ccc2c1c34 [Benzo-a-pyrene, benzo-a-pyrene, reference compound]
BI (binucleated cells) (CHO-K1 cells): 475 | MNC1 (micronucleated cell rate) (CHO-K1 cells): 28 ‰ | MNC2 (micronucleated cell rate) (CHO-K1 cells): 25 ‰ | MNC-M (mean of micronucleated cell rates) (CHO-K1 cells): 26.5 ± 2.12 ‰ | MONO (mononucleated cells) (CHO-K1 cells): 25
